# Tested on: patients with fasting triglyceride levels >500 mg/dL
# Assay: MARINE study: 12-week placebo-controlled study of AMR101, metabolic syndrome subset
# Format: in vivo, human
# Settings: 12 weeks, subjects with metabolic syndrome
# Method: A multi-center, placebo-controlled randomized, double-blind, 12-week study with an open-label extension was performed to evaluate the efficacy and safety of AMR101 in patients with fasting triglyceride levels >500 mg/dL. The primary objective of the study was to determine the efficacy of AMR101 2 g daily and 4 g daily, compared to placebo, in lowering fasting TG levels in patients with fasting TG levels 500 mg/dL and 1500 mg/dL (5.65 mmol/L and 16.94 mmol/L).
# The population for this study was men and women (women of childbearing potential will need to be on contraception or practice abstinence) >18 years of age with a body mass index ≤45 kg/m^2 who were not on lipid-altering therapy or were currently on lipid-altering therapy. Patients currently on statin therapy (with or without ezetimibe) were evaluated by the investigator as to whether this therapy can be safely discontinued at screening, or if it should be continued. If statin therapy (with or without ezetimibe) was to be continued, dose(s) must have been stable […] prior to randomization. Patients taking non-statin, lipid-altering medications (niacin >200 mg/day, fibrates, fish oil, other products containing omega-3 fatty acids, or other herbal products or dietary supplements with potential lipid-altering effects), either alone or in combination with statin therapy (with or without ezetimibe), must have been able to safely discontinue non-statin, lipid-altering therapy at screening.
# Approximately 240 patients were randomized at approximately 50 centers in North America, South America, Central America, Europe, India, and South Africa. The study was a 58- to 60-week, Phase 3, multi-center study consisting of 3 study periods: (1) A 6- to 8-week screening period that included a diet and lifestyle stabilization and washout period and a TG qualifying period; (2) A 12-week, double-blind, randomized, placebo-controlled treatment period; and (3) A 40-week, open-label, extension period.
# After confirmation of qualifying fasting TG values, eligible patients entered a 12-week, randomized, double-blind treatment period. At Visit 4 (Week 0), patients were randomly assigned to 1 of the following treatment groups: • AMR101 2 g daily, • AMR101 4 g daily, or • Placebo.
# Eligible patients were randomly assigned at Visit 4 (Week 0) to receive orally AMR101 2 g daily, AMR101 4 g daily, or placebo for the 12-week double-blind treatment period. AMR101 was provided in 1 g liquid-filled, oblong, gelatin capsules. The matching placebo capsule was filled with light liquid paraffin and contained 0 g of AMR101. During the double-blind treatment period, patients took 2 capsules (AMR101 or matching placebo) in the morning and 2 in the evening for a total of 4 capsules per day. Patients in the AMR101 2 g/day treatment group received 1 AMR101 1 g capsule and 1 matching placebo capsule in the morning and in the evening. Patients in the AMR101 4 g/day treatment group received 2 AMR101 1 g capsules in the morning and evening.
# The primary efficacy variable for the double-blind treatment period was percent change in TG from baseline to Week 12 endpoint. […]
compound,measurement,setting,value
"CC/C=C\C/C=C\C/C=C\C/C=C\C/C=C\CCCC(=O)OCC [AMR101, ethyl eicosapentaenoate]","Apo B, Change from Baseline, %","2 g/day, No statins",2.8%
same,"Apo B, End of Treatment, median (IQR)","2 g/day, No statins",121 mg/dL
same,"Apo B, Median % Change From Baseline vs Placebo","2 g/day, No statins",−1.8%
same,"HDL-C, Change from Baseline, %","2 g/day, No statins",0.0%
same,"HDL-C, End of Treatment, median (IQR)","2 g/day, No statins",26 mg/dL
same,"HDL-C, Median % Change From Baseline vs Placebo","2 g/day, No statins",0.3%
same,"LDL-C, Change from Baseline, %","2 g/day, No statins",1.9%
same,"LDL-C, End of Treatment, median (IQR)","2 g/day, No statins",95 mg/dL
same,"LDL-C, Median % Change From Baseline vs Placebo","2 g/day, No statins",2.8%
same,"Non-HDL-C, Change from Baseline, %","2 g/day, No statins",−1.1%
same,"Non-HDL-C, End of Treatment, median (IQR)","2 g/day, No statins",218 mg/dL
same,"Non-HDL-C, Median % Change From Baseline vs Placebo","2 g/day, No statins",−7.8%
same,"TG, Change from Baseline, %","2 g/day, No statins",−10.1%
same,"TG, End of Treatment, median (IQR)","2 g/day, No statins",586 mg/dL
same,"TG, Median % Change From Baseline vs Placebo","2 g/day, No statins",−17.2%
same,"hsCRP, Change from Baseline, %","2 g/day, No statins",38.0%
same,"hsCRP, End of Treatment, median (IQR)","2 g/day, No statins",2.5 (3.10) mg/L
same,"hsCRP, Median % Change From Baseline vs Placebo","2 g/day, No statins",−7.1%
same,"Apo B, Change from Baseline, %","2 g/day, Statins",−0.9%
same,"Apo B, End of Treatment, median (IQR)","2 g/day, Statins",105 mg/dL
same,"Apo B, Median % Change From Baseline vs Placebo","2 g/day, Statins",−9.1%
same,"HDL-C, Change from Baseline, %","2 g/day, Statins",0.0%
same,"HDL-C, End of Treatment, median (IQR)","2 g/day, Statins",30 mg/dL
same,"HDL-C, Median % Change From Baseline vs Placebo","2 g/day, Statins",4.2%
same,"LDL-C, Change from Baseline, %","2 g/day, Statins",−3.8%
same,"LDL-C, End of Treatment, median (IQR)","2 g/day, Statins",77.5 mg/dL
same,"LDL-C, Median % Change From Baseline vs Placebo","2 g/day, Statins",6.2%
same,"Non-HDL-C, Change from Baseline, %","2 g/day, Statins",10.1%
same,"Non-HDL-C, End of Treatment, median (IQR)","2 g/day, Statins",206 mg/dL
same,"Non-HDL-C, Median % Change From Baseline vs Placebo","2 g/day, Statins",−10.9%
same,"TG, Change from Baseline, %","2 g/day, Statins",14.5%
same,"TG, End of Treatment, median (IQR)","2 g/day, Statins",708 mg/dL
same,"TG, Median % Change From Baseline vs Placebo","2 g/day, Statins",−33.0%
same,"hsCRP, Change from Baseline, %","2 g/day, Statins",14.3%
same,"hsCRP, End of Treatment, median (IQR)","2 g/day, Statins",1.6 (2.20) mg/L
same,"hsCRP, Median % Change From Baseline vs Placebo","2 g/day, Statins",−36.6%
same,"Apo B, Change from Baseline, %","2 g/day, Total",2.5%
same,"Apo B, End of Treatment, median (IQR)","2 g/day, Total",117 mg/dL
same,"Apo B, Median % Change From Baseline vs Placebo","2 g/day, Total",−3.3%
same,"HDL-C, Change from Baseline, %","2 g/day, Total",0.0%
same,"HDL-C, End of Treatment, median (IQR)","2 g/day, Total",28 mg/dL
same,"HDL-C, Median % Change From Baseline vs Placebo","2 g/day, Total",0.9%
same,"LDL-C, Change from Baseline, %","2 g/day, Total",−2.5%
same,"LDL-C, End of Treatment, median (IQR)","2 g/day, Total",94 mg/dL
same,"LDL-C, Median % Change From Baseline vs Placebo","2 g/day, Total",3.6%
same,"Non-HDL-C, Change from Baseline, %","2 g/day, Total",0.0%
same,"Non-HDL-C, End of Treatment, median (IQR)","2 g/day, Total",214 mg/dL
same,"Non-HDL-C, Median % Change From Baseline vs Placebo","2 g/day, Total",−8.3%
same,"TG, Change from Baseline, %","2 g/day, Total",−4.3%
same,"TG, End of Treatment, median (IQR)","2 g/day, Total",606 mg/dL
same,"TG, Median % Change From Baseline vs Placebo","2 g/day, Total",−19.1%
same,"hsCRP, Change from Baseline, %","2 g/day, Total",25.1%
same,"hsCRP, End of Treatment, median (IQR)","2 g/day, Total",2.4 (3.20) mg/L
same,"hsCRP, Median % Change From Baseline vs Placebo","2 g/day, Total",−14.5%
same,"Apo B, Change from Baseline, %","4 g/day, No statins",−4.3%
same,"Apo B, End of Treatment, median (IQR)","4 g/day, No statins",123 mg/dL
same,"Apo B, Median % Change From Baseline vs Placebo","4 g/day, No statins",−9.2%
same,"HDL-C, Change from Baseline, %","4 g/day, No statins",0.0%
same,"HDL-C, End of Treatment, median (IQR)","4 g/day, No statins",25 mg/dL
same,"HDL-C, Median % Change From Baseline vs Placebo","4 g/day, No statins",−4.2%
same,"LDL-C, Change from Baseline, %","4 g/day, No statins",−1.5%
same,"LDL-C, End of Treatment, median (IQR)","4 g/day, No statins",92 mg/dL
same,"LDL-C, Median % Change From Baseline vs Placebo","4 g/day, No statins",−2.0%
same,"Non-HDL-C, Change from Baseline, %","4 g/day, No statins",−9.9%
same,"Non-HDL-C, End of Treatment, median (IQR)","4 g/day, No statins",220 mg/dL
same,"Non-HDL-C, Median % Change From Baseline vs Placebo","4 g/day, No statins",−18.5%
same,"TG, Change from Baseline, %","4 g/day, No statins",−26.6%
same,"TG, End of Treatment, median (IQR)","4 g/day, No statins",582 mg/dL
same,"TG, Median % Change From Baseline vs Placebo","4 g/day, No statins",−28.5%
same,"hsCRP, Change from Baseline, %","4 g/day, No statins",0.0%
same,"hsCRP, End of Treatment, median (IQR)","4 g/day, No statins",2.3 (2.30) mg/L
same,"hsCRP, Median % Change From Baseline vs Placebo","4 g/day, No statins",−78.0%
same,"hsCRP, Median % Change From Baseline vs Placebo","4 g/day, No statins, listed as IPE",−27.6%
same,"Apo B, Change from Baseline, %","4 g/day, Statins",−1.6%
same,"Apo B, End of Treatment, median (IQR)","4 g/day, Statins",100 mg/dL
same,"Apo B, Median % Change From Baseline vs Placebo","4 g/day, Statins",−9.0%
same,"HDL-C, Change from Baseline, %","4 g/day, Statins",−5.2%
same,"HDL-C, End of Treatment, median (IQR)","4 g/day, Statins",29 mg/dL
same,"HDL-C, Median % Change From Baseline vs Placebo","4 g/day, Statins",0.3%
same,"LDL-C, Change from Baseline, %","4 g/day, Statins",−11.4%
same,"LDL-C, End of Treatment, median (IQR)","4 g/day, Statins",72.5 mg/dL
same,"LDL-C, Median % Change From Baseline vs Placebo","4 g/day, Statins",−4.3%
same,"Non-HDL-C, Change from Baseline, %","4 g/day, Statins",−7.6%
same,"Non-HDL-C, End of Treatment, median (IQR)","4 g/day, Statins",172 mg/dL
same,"Non-HDL-C, Median % Change From Baseline vs Placebo","4 g/day, Statins",−27.4%
same,"TG, Change from Baseline, %","4 g/day, Statins",−29.1%
same,"TG, End of Treatment, median (IQR)","4 g/day, Statins",457 mg/dL
same,"TG, Median % Change From Baseline vs Placebo","4 g/day, Statins",−62.6%
same,"hsCRP, Change from Baseline, %","4 g/day, Statins",−35.1%
same,"hsCRP, End of Treatment, median (IQR)","4 g/day, Statins",2.7 (3.70) mg/L
same,"hsCRP, Median % Change From Baseline vs Placebo","4 g/day, Statins",−27.6%
same,"hsCRP, Median % Change From Baseline vs Placebo","4 g/day, Statins, listed as IPE",−78.0%
same,"Apo B, Change from Baseline, %","4 g/day, Total",−3.5%
same,"Apo B, End of Treatment, median (IQR)","4 g/day, Total",120 mg/dL
same,"HDL-C, Change from Baseline, %","4 g/day, Total",0.0%
same,"HDL-C, End of Treatment, median (IQR)","4 g/day, Total",26 mg/dL
same,"HDL-C, Median % Change From Baseline vs Placebo","4 g/day, Total",−3.0%
same,"LDL-C, Change from Baseline, %","4 g/day, Total",−4.1%
same,"LDL-C, End of Treatment, median (IQR)","4 g/day, Total",89 mg/dL
same,"Non-HDL-C, Change from Baseline, %","4 g/day, Total",−9.6%
same,"Non-HDL-C, End of Treatment, median (IQR)","4 g/day, Total",207 mg/dL
same,"TG, Change from Baseline, %","4 g/day, Total",−26.8%
same,"TG, End of Treatment, median (IQR)","4 g/day, Total",504 mg/dL
same,"hsCRP, Change from Baseline, %","4 g/day, Total",−2.9%
same,"hsCRP, End of Treatment, median (IQR)","4 g/day, Total",2.4 (2.95) mg/L
same,"Apo B, Median % Change From Baseline vs Placebo","4 g/day, Total, listed as IPE",−9.1%
same,"LDL-C, Median % Change From Baseline vs Placebo","4 g/day, Total, listed as IPE",−3.2%
same,"Non-HDL-C, Median % Change From Baseline vs Placebo","4 g/day, Total, listed as IPE",−19.9%
same,"TG, Median % Change From Baseline vs Placebo","4 g/day, Total, listed as IPE",−35.0%
same,"hsCRP, Median % Change From Baseline vs Placebo","4 g/day, Total, listed as IPE",−40.0%

# From patent US20200268702A1, “METHODS OF TREATING […]” (Amarin Pharmaceuticals Ireland Limited, priority 2013, published 2020)
